Measured values reported in PMC5117898 (International Journal of Nanomedicine, 2016).

Legend:
[1] = Dex loading and release study in simulated perilymph; assay type: physicochemical; settings: dialysis loading, PCA 30 mg and Dex 6 mg in DMSO
HEI-OC1 cells = test: Cellular uptake test of CPPs; assay type: cell-based, mouse; settings: rhodamine-labeled peptides 0.025 mg/mL, flow cytometry

Substance	percentage of Dex loading [1]	fluorescence intensity fold higher compared with Penetratin (HEI-OC1 cells)	fluorescence intensity fold higher compared with Tat (HEI-OC1 cells)
PHEA-g-C18-Arg8 [PCA nanoparticles]	16.8%±3.2		
RRRRRRRR [Arg8]		18.8±3.2 fold	16.1±1.3 fold
